Test results: patent US4968697A, “2-substituted adenosine 5'-carboxamides as antihypertensive agents” (Ciba-Geigy Corporation, priority 1989, dated 1990)
Structures can show the parent of a compound that is named as a salt.

Assays:
normotensive rat = experiment: blood pressure lowering effect in normotensive rats (i.v.); assay type: in vivo; conditions: iv, read-out: dose that lowers blood pressure (as low as)
Description: (§1) Indicative of in vivo adenosine receptor agonist activity, the hypotensive activity of the compounds of the invention as well as their effect on heart rate can be measured in normotensive or spontaneous hypertensive rats on intravenous or oral administration.
Typically, the blood pressure lowering effect in normotensive rats can be determined as follows:
Adult male rats weighing 300-400 g are anesthetized using Inactin (100 mg/kg, i.p.). A femoral artery and contralateral vein are cannulated for direct blood pressure measurement and i.v. drug administration, respectively. Animals are allowed a 15 minute equilibration period before testing. Vehicle (1 ml/kg, i.v.) is administered over a 30 second period followed by a 0.3 ml saline flush administered over a 30 second period. Changes in diastolic blood pressure are recorded using a Beckman polygraph while heart rate is recorded as a derivative of the blood pressure pulse. The test compound is administered in the same manner as vehicle and a dose response curve is established. Percent changes in heart rate and blood pressure are recorded.

[1] = system: spontaneous hypertensive rat; experiment: blood pressure lowering effect in the spontaneous hypertensive rat (oral); assay type: in vivo; conditions: p.o., read-out: dose that lowers blood pressure (as low as)
Description: as §1
The blood pressure lowering effect in the spontaneous hypertensive rat is determined on oral administration.

[2] = molecular target: T1, adenosine-2 (A-2) receptor (Rattus norvegicus, UniProt P30543); experiment: in vitro adenosine-2 (A-2) receptor binding: inhibition of specific 3H-NECA binding in rat striatal membranes; parameters: species or system male Sprague-Dawley rats; conditions: 4 nM 3H-NECA, in presence of 50 nM cyclopentyladenosine
T1 construct: striatal membrane preparations from corpus striatum of male Sprague-Dawley rats; from tissue; host or cells: corpus striatum membranes of male Sprague-Dawley rats
T1 sequence (P30543 whole entry): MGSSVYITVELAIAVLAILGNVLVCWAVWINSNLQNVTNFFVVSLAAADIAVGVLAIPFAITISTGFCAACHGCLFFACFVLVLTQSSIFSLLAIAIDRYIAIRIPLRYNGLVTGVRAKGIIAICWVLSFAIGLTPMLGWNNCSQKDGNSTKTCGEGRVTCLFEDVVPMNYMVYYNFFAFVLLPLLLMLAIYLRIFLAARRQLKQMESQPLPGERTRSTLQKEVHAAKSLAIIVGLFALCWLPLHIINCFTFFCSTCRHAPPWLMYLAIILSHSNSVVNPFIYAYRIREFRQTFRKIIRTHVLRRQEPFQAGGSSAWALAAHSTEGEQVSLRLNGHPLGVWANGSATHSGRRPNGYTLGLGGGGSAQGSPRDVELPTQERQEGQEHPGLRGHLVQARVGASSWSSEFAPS
Description: The concentration of a particular compound required to displace the specific binding of 4 nM ^3 H-NECA is determined in the presence of 50 nM cyclopentyladenosine.

| Compound | minimal effective dose (normotensive rat) [mg/kg] | minimal effective dose [1] [mg/kg] | IC50 [2] [nM] |
| --- | --- | --- | --- |
| CCNC(=O)[C@H]1O[C@@H](n2cnc3c(N)nc(NCCc4ccc(CCC(=O)O)cc4)nc32)[C@H](O)[C@@H]1O [Example 2g, 2-[p-(2-carboxyethyl)-2-phenethylamino]-adenosine5'-(N-ethyl)-carboxamide] | ~0.005 | ~3 | – |
| CCNC(=O)[C@H]1O[C@@H](n2cnc3c(N)nc(NCCC4CCCCC4)nc32)[C@H](O)[C@@H]1O [Example 2n, 2-(2-cyclohexylethylamino)-adenosine-5'-(N-ethyl)carboxamide hydrochloride] | – | – | ~13 |
